Reference: patent US9603922B2, “Modulation of NKT cell activity with antigen-loaded CD1d molecules” (VACCINEX, INC., priority 2007, dated 2017)

Experiments:
B16 melanoma cells = experiment: Pretreatment and B16 melanoma lung metastasis; assay type: in vivo, mouse; conditions: for Lung metastasis / tumor resistance in pretreated mice: 5 i.v. pretreatments every 3 days, then 700,000 B16 cells co-injected with same agent; for Lung metastasis / tumor development in naïve mice: no pretreatment, agent co-injected with B16 cells
Description: FIG. 4: Sustained iNKT activation in vivo due to repeated injections of αGalCer/sCD1d prevents formation of lung metastases. Mice were treated 5 times with PBS (Control, white), αGalCer (0.4 μg, light grey), or αGalCer/sCD1d (sCD1d, 20 μg, black) and then grafted with 700,000 B16 wild type cells plus co-injection of the respective treatment. 2 naive groups were included that had no pretreatment and got only tumor cell graft+co-injection of αGalCer (striped grey) or αGalCer/sCD1d (sCD1d, dark striped grey) respectively. Lung metastases formation was analysed 2 weeks after graft with the ImageJ k-means clustering program and results are expressed as percent of black metastatic surface over total lung surface. P values for αGalCer/sCD1d pretreated and naive+αGalCer groups compared to control *P<0.04, and compared to αGalCer pretreated group *P<0.02.
Quantification of lung metastasis. Metastatic nodule surface area was measured on 2560×1920 pixels photographs of the whole organs, taken on an Zeiss STEMI SV11 dissection microscope (Carl Zeiss, Jena, Germany) equipped with a PROGRES-C10plus Color Camera (Jenoptik, Jena, Germany). Each image was analyzed with the ImageJ program (rsb.info.nih.gov/ij/) using a k-means clustering algorithm (plugin available on ij-plugins.sourceforge.net). Images were segmented into 9 segments cluster tolerance 1×10−4, randomization seed: 48) and the appropriate segments were selected based on the color of the metastasis reaching the surface of the organ. The area of the sum of selected color segments was expressed as percentage of the area occupied by the lungs. Both sides of the lung were analyzed. This method takes into account both the number and the size of the tumor nodules. Since nodules are often heterogenous the percentage of metastatic lung surface area is a more sensitive measure of tumor growth than just counting tumor nodules.
This is most likely due to the anergic state of iNKT cells induced by free αGalCer. In contrast, in naïve mice, opposite results were obtained. […] The key finding is that multiple prior injections of αGalCer loaded recombinant CD1d molecules but not of free αGalCer confers resistance to tumor development.

[1] = system: splenocytes, CD11c+ CD40+ DC; experiment: DC maturation (CD11c+ CD40+) in splenocyte cultures of treated mice; assay type: cell-based, mouse; conditions: in vitro stimulation of splenocytes isolated after systemic treatment
Description: Cells were stained with anti NK1.1-PE and anti CD3-FITC and analysed by flow cytometry. NK cells are reported as NK1.1 positive/CD3 negative population. b c Induction of DC maturation and T cell proliferation by αGalCer/sCD1d activated NKT cells in vivo. Splenocytes were isolated after five treatments i.v. with either PBS (control), αGalCer, or αGalCer/sCD1d and cultured for 4 days with GM-CSF and then 3 more days with either PBS (control, white bars), αGalCer (grey bars), or αGalCer/sCD1d (sCD1d, black bars). Cells were then stained with anti CD11c-FITC and biotinylated anti CD40 and Streptavidin-PE to detect double positive mature DCs (c), or with anti NK1.1-PE and anti CD3-FITC to detect CD3 single positive T cells (d) by flow cytometry.
In absence of a specific antigen: Several reports have described the capacity of iNKT cells to transactivate NK, DC and T cells upon activation with free αGalCer or αGalCer-pulsed dendritic cells (Nieda, M., et al. Blood 103:383-389 (2004); Hermans, I. F., et al. J Immunol 171:5140-5147 (2003); Smyth, M. J., et al. J Exp Med 201:1973-1985 (2005)). […] Markers for DC maturation were also analyzed after 5 days in vitro culture of splenocytes isolated at the end of a systemic treatment, as described in Example 1. […]

liver iNKT cells = experiment: InvTCR downmodulation: disappearance of liver iNKT cells after single i.p. injection; assay type: in vivo, mouse; conditions: 20 hours after single i.p. injection; αGalCer 5 μg, sCD1d 20 μg, fusion 40 μg
Description: Frequency of iNKT cells was measured by flow cytometry using CD1d-Tetramer-EXTRAVIDIN®-PE and anti CD3 FITC.
Generation of CD1d tetramer. For this purpose, the soluble β2m-CD1d molecule was modified at the C-terminus by the addition of a cysteine after the stretch of histidine residues. After a mild reduction with 0.5 mM β-mercaptoethanol for 30 min at 30C and purification on a PD10 desalting column, the pure recombinant protein was biotinylated on the cystein residue by the chemical coupling of a biotin-maleimide linker (EZ-linked BM, Pierce) in 2M excess overnight at RT. The excess of linker was removed by gel filtration on a SUPERDEX™S200 column (Pharmacia Biotech). The biotinylated CD1d was loaded with αGalCer as described above and was tetramerized on EXTRAVIDIN®-PE (Sigma) and resulting complex was used at 5 μg/ml for NKT cell staining.
Isolation of liver, lung and spleen lymphocytes. Mouse livers and lungs were homogenized with 100 μm strainer and lymphocytes were isolated using a PERCOLL™ density gradient (Amersham Biosciences). After two washings, cells were either re-challenged or directly analyzed by fluorescence cytometry. Spleens were homogenized with a 70 μm strainer, debris were eliminated by spontaneous sedimentation and splenocytes were recovered by centrifugation. […]

CCCCCCCCCCCCCCCCCCCCCCCCCC(=O)N[C@@H](CO[C@H]1O[C@H](CO)[C@H](O)[C@H](O)[C@H]1O)[C@H](O)[C@H](O)CCCCCCCCCCCCCC [αGalCer, α-galactosylceramide, reference compound]
Lung metastasis / tumor resistance in pretreated mice (B16 melanoma cells): not able to block lung metastasis
Lung metastasis / tumor development in naïve mice (B16 melanoma cells): completely blocked tumor development
Percentage of CD11c+ CD40+ double positive cells [1]: had no effect in any of the mice
inv TCR downmodulation / disappearance of liver iNKT cells (liver iNKT cells): inv TCR downmodulation occurred

B1: αGalCer/sCD1d: soluble monomeric mouse β2m-CD1d, His-tagged, loaded with αGalCer (protein)
chain: IQKTPQIQVYSRHPPENGKPNILNCYVTQFHPPHIEIQMLKNGKKIPKVEMSDMSFSKDWSFYILAHTEFTPTETDTYACRVKHASMAEPKTVYWDRDMGGGGSGGSGSGGGSEAQQKNYTFRCLQMSSFANRSWSRTDSVVWLGDLQTHRWSNDSATISFTKPWSQGKLSNQQWEKLQHMFQVYRVSFTRDIQELVKMMSPKEDYPIEIQLSAGCEMYPGNASESFLHVAFQGKYVVRFWGTSWQTVPGAPSWLDLPIKVLNADQGTSATVQMLLNDTCPLFVRGLLEAGKSDLEKQEKPVAWLSSVPSSADGHRQLVCHVSGFYPKPVWVMWMRGDQEQQGTHRGDFLPNADETWYLQATLDVEAGEEAGLACRVKHSSLGGQDIILYWSSGSGGHHHHHH
Lung metastasis / tumor resistance in pretreated mice (B16 melanoma cells): rendered them resistant to B16 melanoma cells
Lung metastasis / tumor development in naïve mice (B16 melanoma cells): had no effect
Percentage of CD11c+ CD40+ double positive cells [1]: increased
inv TCR downmodulation / disappearance of liver iNKT cells (liver iNKT cells): transient disappearance of liver iNKT cells
